From publication PMC12032302, “A20 attenuates oxidized self-DNA-mediated inflammation in acute kidney injury” (Signal Transduction and Targeted Therapy, 2025) come the findings set out here.

Assay [1] concerns AKI mice. Put plainly: overall therapeutic effect in AKI mice. The following applies: A20-derived peptide (P-II), abstract. It is filed as in vivo, mouse. Here is the method:
(§1) Aristolochic acid I sodium salt was dissolved in PBS to 1 mg/mL and injected intraperitoneally at a dose of 10 mg/kg (body weight) every 24 h for 3 days; cisplatin was dissolved in PBS to 1.5 mg/mL for one-time intraperitoneal 25 mg/kg injection; LPS (Sigma, Cat#L2630) was dissolved in PBS to 2.5 mg/mL for one-time intraperitoneal 25 mg/kg injection; deoxyribonuclease I (DNase I, Sigma, Cat#SLBV1446) was dissolved in PBS to 1 mg/mL and injected intraperitoneally at a dose of 10 mg/kg at 4 h before cisplatin or AA I injection and every 24 h after injection. Disulfiram (MedChemExpress, CAS:97-77-8) was diluted in corn oil to 12.5 mg/mL and injected 50 mg/kg intraperitoneally every 24 h after cisplatin or AA I administration. Cu(II) (Sigma, Cat#344419) was dissolved in PBS to 30 µg/mL and administered intraperitoneally 6 h before disulfiram at a dose of 0.15 mg/kg; TNF-α (Peprotech, Cat#315-01 A) was dissolved in PBS to 10 µg/mL and injected at 100 µg/kg once through the caudal vein 24 h before cisplatin injection. Metformin (Sigma, Cat#D150959) was dissolved in PBS to 5 mg/mL and injected intraperitoneally at a dose of 50 mg/kg 24 h before cisplatin or AA I injection and every 24 h after injection. MCC950 (MedChem Express, CAS:256373-96-3) was dissolved in PBS to 5 mg/mL and injected intraperitoneally at a dose of 50 mg/kg 12 h before cisplatin or AA I injection and every 12 h after injection; berberine (APExBIO, Cat#N1368) was dissolved in PBS to 5 mg/mL and 5 mg/kg injected intraperitoneally at 36, 24 and 12 h before cisplatin; A20-derived-peptide was dissolved in ddH2O to 3 mg/mL and injected intraperitoneally at a dose of 15 mg/kg 1 h before cisplatin. To supervise the effects of various treatments on survival time and rate, the mice were observed, and survival curves were generated. To investigate the specific mechanisms, whole blood was retrieved from the orbit, serum was separated through centrifugation on the 4th day, and the mice were then sacrificed by cervical dislocation. Mice were randomly assigned in experiments, while there was no blinding during the animal experiments.

For assay [2], the system named is AKI mice. The experiment in a line: tubular injury / renal injury of AKI mice (HE histology). It is filed as in vivo, mouse. Conditions: Cis-treated mice; A20-derived peptide 15 mg/kg i.p., pretreated; n = 9. Here is the method: (§2) LPS (Sigma, Cat#L2630) was dissolved in PBS to 2.5 mg/mL for one-time intraperitoneal 25 mg/kg injection; deoxyribonuclease I (DNase I, Sigma, Cat#SLBV1446) was dissolved in PBS to 1 mg/mL and injected intraperitoneally at a dose of 10 mg/kg at 4 h before cisplatin or AA I injection and every 24 h after injection. Disulfiram (MedChemExpress, CAS:97-77-8) was diluted in corn oil to 12.5 mg/mL and injected 50 mg/kg intraperitoneally every 24 h after cisplatin or AA I administration. Cu(II) (Sigma, Cat#344419) was dissolved in PBS to 30 µg/mL and administered intraperitoneally 6 h before disulfiram at a dose of 0.15 mg/kg; TNF-α (Peprotech, Cat#315-01 A) was dissolved in PBS to 10 µg/mL and injected at 100 µg/kg once through the caudal vein 24 h before cisplatin injection. […] MCC950 (MedChem Express, CAS:256373-96-3) was dissolved in PBS to 5 mg/mL and injected intraperitoneally at a dose of 50 mg/kg 12 h before cisplatin or AA I injection and every 12 h after injection; berberine (APExBIO, Cat#N1368) was dissolved in PBS to 5 mg/mL and 5 mg/kg injected intraperitoneally at 36, 24 and 12 h before cisplatin; […] To supervise the effects of various treatments on survival time and rate, the mice were observed, and survival curves were generated. To investigate the specific mechanisms, whole blood was retrieved from the orbit, serum was separated through centrifugation on the 4th day, and the mice were then sacrificed by cervical dislocation. Mice were randomly assigned in experiments, while there was no blinding during the animal experiments. Renal function was evaluated based on serum creatinine level and histological features. Serum creatinine was determined in the Clinical Pharmacology Lab, Clinical Trial Center, WCH, SCU. The kidneys were extracted from euthanized mice, immediately fixed with 4% paraformaldehyde, and embedded in paraffin. Furthermore, the samples were cut into 5 µm thick sections. These tissue samples were subjected to hematoxylin-eosin (HE) and […] according to standard protocols with HE reagent (Biosharp, Cat#BL702B, BL703B) and Masson reagent (Servicebio, Cat#G1006-100ML). The pathological changes were detected through optical microscopy, and the tubulointerstitial injury score was determined as previously reported.

Assay [3] concerns AKI mice. The experiment in a line: serum creatinine of AKI mice. The assay is classed as in vivo, mouse. Conditions: Cis-treated mice; A20-derived peptide 15 mg/kg i.p., pretreated; n = 5. Here is the method:
as §2

For another assay, the system named is NEK7 and NLRP3 complex. The experiment in a line: interaction of NEK7 and NLRP3 complex. It is filed as binding. Here is the method: Cells were lysed in mild lysis buffer with a protease inhibitor cocktail (Cell Signaling Technology, Cat#5872S) on ice for 10 min to perform the coimmunoprecipitation (co-IP) assay. Samples were then centrifuged at 12,000 rpm at 4 °C for 10 min, and the supernatant was incubated with the corresponding primary antibody (anti-HA, 1:100, Cell Signaling Technology, Cat#3724S) overnight at 4 °C. On the next day, magnetic beads were added and incubated for 1 h. The immunocoprecipitated protein was washed three times by MLB and then heated with 4× Laemmli loading buffer at 100 °C for 10 min. Samples were then subjected to western blot analysis.

For a further assay, the system named is HA-NEK7 K140A. Put plainly: biotin-P-II immunoprecipitation of HA-NEK7 K140A. The assay is classed as binding, mouse. Conditions: co-IP with biotin-labeled P-II, HEK293T lysates, overnight 4 °C, immunoblot; Fig. 7c. Here is the method:
For biotin mediated immunoprecipitation, plasmids of HA-NEK7 (WT, K130A, L132R, K140A and Tri-MUT) were transfected into HEK293T cells for 2 days. Then, cells were lysed in MLB with inhibitor cocktail for 10 min at 4 °C. Cell lysates were collected and centrifuged at 12,000 rpm for 15 min at 4 °C and the supernatant was incubated with biotin conjunction peptide overnight at 4 °C. On the next day, streptavidin magnetic beads(Invitrogen, Lot#91221939) were added and incubated for 1 h. The immunocoprecipitated protein was then subjected to washing, heating, and western blot analysis.
Mouse HA-NEK7, FlAG-A20, and NLRP3 cDNA were amplified by employing standard PCR techniques from a mouse cDNA library. Subsequently, diverse cDNAs were inserted into mammalian expression vectors pcDNA3.1(+), pRK5, or pCMV6 with 3×Flag or 3×HA tags. For transient transfections, Lipofectamine 3000 was utilized according to the manufacturer’s instructions.
On the technique in general: In western blotting, separated proteins are transferred to a membrane and probed.

Assay [4] relates to AKI mice. The experiment in a line: survival of AKI mice. It is filed as in vivo, mouse. The following applies: Cis-treated mice; A20-derived peptide 15 mg/kg i.p., pretreated; n = 10 per group. Here is the method:
as §1

Entries after “also recorded” stand apart in the source; their conditions may differ. Residues, ends and D or L forms follow the SMILES beside them.

Regarding `CSCC[C@H](NC(=O)[C@H](Cc1ccc(O)cc1)NC(=O)[C@H](CCC(N)=O)NC(=O)[C@H](CS)NC(=O)[C@H](C)NC(=O)[C@H](C)NC(=O)[C@H](Cc1c[nH]cn1)NC(=O)[C@H](CCSC)NC(=O)[C@H](CC(C)C)NC(=O)[C@H](CS)NC(=O)[C@H](CC(N)=O)NC(=O)CNC(=O)[C@H](CC(=O)O)NC(=O)CNC(=O)[C@H](CC(N)=O)NC(=O)[C@@H](NC(=O)[C@H](CCCCN)NC(=O)[C@H](CC(C)C)NC(=O)[C@H](C)NC(=O)[C@@H](NC(=O)[C@H](CC(C)C)NC(=O)[C@@H](N)CCCCN)C(C)C)[C@@H](C)O)C(=O)N[C@@H](Cc1c[nH]c2ccccc12)C(=O)NCC(=O)N[C@H](C(=O)N[C@@H](CCC(N)=O)C(=O)N[C@@H](CC(=O)O)C(=O)N[C@H](C(=O)N[C@@H](CC(=O)O)C(=O)O)[C@@H](C)O)C(C)C` [P-II] (H-KLVALKTNGDGNCLMHAACQYMWGVQDTD-OH; N-terminus and C-terminus assumed), the “survival and renal injury of AKI mice” value with AKI mice [1] was “improves the survival and renal injury of AKI mice”. Moreover, in the assay with AKI mice [2], the “renal injury (in words)” value was “alleviated the serum creatinine and renal injury”. In addition, the “serum creatinine (in words)” value in the assay with AKI mice [3] is on record as “alleviated the serum creatinine”. Also, in the assay on NEK7 and NLRP3 complex, the “interference with NEK7-NLRP3 interaction” value was “interfere with the interaction between NEK7 and NLRP3 through Lys140 of NEK7; also recorded: interfering the binding of NEK7 to NLRP3 complex”. In addition, the “binding of NEK7 and P-II, effect of K140A mutation” value with HA-NEK7 K140A was “significantly attenuate the binding of NEK7 and P-II; also recorded: Lys140 of NEK7 is crucial for this binding”. In addition, the survival entry in the assay with AKI mice [4] was “improved the survival of mice”.
